Active and inactive are the calls of the source. How the calls were made is not given here.
Target: Histone-lysine N-methyltransferase 2A (Homo sapiens) (UniProt Q03164)
Assay: menin-MLL interaction inhibitors, SAR follow-up, biochemical, fluorescence polarization (AID 743469)
Conditions: menin + fluorescein MLL peptide

Histone-lysine N-methyltransferase 2A (Homo sapiens), sequence (Q03164 whole entry, looked up): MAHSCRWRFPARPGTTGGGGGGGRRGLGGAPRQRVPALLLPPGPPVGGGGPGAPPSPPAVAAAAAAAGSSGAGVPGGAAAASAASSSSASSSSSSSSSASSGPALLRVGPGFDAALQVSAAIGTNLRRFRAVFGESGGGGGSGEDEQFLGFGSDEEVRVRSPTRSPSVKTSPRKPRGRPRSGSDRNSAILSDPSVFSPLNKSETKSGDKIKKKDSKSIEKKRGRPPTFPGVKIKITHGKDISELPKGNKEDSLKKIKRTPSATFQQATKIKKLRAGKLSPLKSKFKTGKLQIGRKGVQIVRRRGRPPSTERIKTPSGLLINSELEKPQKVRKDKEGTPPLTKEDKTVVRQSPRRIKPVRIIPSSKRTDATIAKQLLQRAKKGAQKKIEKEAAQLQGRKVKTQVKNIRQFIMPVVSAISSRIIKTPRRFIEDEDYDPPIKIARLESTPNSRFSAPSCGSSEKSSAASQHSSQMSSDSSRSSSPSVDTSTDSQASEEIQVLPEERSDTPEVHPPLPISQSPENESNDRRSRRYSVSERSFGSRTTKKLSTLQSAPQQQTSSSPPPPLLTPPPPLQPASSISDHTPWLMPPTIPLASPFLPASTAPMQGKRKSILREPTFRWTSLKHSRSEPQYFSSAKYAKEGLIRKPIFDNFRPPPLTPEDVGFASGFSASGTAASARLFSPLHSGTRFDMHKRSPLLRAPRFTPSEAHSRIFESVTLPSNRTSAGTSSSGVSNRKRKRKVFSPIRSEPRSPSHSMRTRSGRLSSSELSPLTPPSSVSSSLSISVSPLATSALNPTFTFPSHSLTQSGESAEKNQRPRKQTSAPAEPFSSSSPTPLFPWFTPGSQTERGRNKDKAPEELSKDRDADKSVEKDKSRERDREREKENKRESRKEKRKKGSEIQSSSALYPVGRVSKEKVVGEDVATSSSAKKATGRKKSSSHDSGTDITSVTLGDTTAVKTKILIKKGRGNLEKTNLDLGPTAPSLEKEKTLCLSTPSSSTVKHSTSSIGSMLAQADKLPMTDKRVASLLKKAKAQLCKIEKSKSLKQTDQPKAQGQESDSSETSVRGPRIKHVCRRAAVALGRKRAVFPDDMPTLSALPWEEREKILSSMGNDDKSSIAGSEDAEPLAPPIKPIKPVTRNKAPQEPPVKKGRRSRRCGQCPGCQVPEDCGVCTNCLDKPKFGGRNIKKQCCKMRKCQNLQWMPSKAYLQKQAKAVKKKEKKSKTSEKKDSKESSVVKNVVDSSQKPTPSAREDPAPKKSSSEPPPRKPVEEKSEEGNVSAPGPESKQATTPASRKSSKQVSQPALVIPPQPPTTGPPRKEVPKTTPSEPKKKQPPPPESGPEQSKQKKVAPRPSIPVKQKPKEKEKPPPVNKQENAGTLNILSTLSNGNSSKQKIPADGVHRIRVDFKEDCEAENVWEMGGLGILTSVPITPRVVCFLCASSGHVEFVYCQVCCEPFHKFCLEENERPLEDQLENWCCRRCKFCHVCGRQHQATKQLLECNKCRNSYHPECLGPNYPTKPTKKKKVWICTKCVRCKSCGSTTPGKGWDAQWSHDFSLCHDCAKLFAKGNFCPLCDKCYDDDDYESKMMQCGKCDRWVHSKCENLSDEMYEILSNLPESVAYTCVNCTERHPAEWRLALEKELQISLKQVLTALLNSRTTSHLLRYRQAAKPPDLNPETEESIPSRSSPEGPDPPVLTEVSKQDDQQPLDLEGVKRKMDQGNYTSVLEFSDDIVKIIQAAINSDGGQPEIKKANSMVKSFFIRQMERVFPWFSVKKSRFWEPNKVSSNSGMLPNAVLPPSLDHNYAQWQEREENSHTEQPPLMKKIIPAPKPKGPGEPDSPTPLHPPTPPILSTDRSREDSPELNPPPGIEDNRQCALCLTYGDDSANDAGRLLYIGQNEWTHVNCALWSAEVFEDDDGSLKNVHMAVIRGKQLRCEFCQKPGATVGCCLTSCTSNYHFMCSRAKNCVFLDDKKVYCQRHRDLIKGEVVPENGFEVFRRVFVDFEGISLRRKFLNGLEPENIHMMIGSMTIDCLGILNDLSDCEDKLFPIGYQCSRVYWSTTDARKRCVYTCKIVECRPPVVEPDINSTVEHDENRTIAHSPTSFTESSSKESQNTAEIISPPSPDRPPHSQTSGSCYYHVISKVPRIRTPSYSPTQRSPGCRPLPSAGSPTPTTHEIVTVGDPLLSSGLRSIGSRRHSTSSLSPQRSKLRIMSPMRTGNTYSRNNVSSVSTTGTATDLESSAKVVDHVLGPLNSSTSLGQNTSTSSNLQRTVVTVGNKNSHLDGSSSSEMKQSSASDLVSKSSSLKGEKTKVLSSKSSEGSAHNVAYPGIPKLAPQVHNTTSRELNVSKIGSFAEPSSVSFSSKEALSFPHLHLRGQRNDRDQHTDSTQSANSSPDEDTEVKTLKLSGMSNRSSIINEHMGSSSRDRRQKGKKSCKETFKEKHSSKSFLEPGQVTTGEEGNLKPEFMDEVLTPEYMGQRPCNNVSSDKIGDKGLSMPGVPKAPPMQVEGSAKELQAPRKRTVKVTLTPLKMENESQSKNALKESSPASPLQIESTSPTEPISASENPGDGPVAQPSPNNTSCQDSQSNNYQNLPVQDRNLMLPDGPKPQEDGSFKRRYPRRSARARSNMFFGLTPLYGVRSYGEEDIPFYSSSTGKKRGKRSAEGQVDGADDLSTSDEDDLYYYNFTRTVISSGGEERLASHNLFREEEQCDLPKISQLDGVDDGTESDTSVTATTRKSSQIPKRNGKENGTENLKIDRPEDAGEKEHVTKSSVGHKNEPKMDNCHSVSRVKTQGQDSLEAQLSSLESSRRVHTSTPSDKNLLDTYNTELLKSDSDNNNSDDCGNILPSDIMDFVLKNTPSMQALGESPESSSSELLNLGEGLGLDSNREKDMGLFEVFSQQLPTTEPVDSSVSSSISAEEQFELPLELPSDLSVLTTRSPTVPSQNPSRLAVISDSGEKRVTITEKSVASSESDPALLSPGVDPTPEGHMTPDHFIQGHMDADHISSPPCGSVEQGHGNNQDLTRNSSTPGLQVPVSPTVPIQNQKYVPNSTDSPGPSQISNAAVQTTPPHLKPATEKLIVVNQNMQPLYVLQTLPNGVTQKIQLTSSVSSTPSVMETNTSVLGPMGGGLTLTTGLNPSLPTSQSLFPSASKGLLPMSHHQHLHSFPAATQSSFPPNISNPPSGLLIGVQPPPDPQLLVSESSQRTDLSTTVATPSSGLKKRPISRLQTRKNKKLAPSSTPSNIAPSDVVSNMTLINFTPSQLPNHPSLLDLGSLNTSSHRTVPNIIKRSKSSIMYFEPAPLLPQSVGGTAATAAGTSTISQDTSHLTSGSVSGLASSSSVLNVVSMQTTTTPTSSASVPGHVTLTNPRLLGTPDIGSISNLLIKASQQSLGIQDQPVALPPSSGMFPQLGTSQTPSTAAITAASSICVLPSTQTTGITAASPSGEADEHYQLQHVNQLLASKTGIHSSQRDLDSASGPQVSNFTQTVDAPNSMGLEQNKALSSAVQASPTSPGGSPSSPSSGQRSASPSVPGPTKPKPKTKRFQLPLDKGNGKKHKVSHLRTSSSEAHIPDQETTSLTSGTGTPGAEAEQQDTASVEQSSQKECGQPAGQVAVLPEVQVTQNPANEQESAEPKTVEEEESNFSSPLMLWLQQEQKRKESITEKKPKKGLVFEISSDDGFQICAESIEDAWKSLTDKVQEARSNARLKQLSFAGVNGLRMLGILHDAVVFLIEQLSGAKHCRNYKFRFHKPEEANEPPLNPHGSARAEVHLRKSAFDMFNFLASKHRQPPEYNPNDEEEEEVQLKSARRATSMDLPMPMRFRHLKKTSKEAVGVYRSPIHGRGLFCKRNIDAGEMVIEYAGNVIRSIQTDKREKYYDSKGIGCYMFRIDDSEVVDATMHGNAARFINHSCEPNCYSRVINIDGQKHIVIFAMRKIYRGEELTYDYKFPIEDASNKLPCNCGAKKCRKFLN

SMILES	IC50 [nM]	outcome
N#Cc1ccc(OCCCN2CCC(C(O)(c3cccnc3)C3CCCC3)CC2)cc1 (stereo not given)	709	
N#Cc1ccc(OCCCN2CCC(C(O)(c3ccccc3)C3CCCC3)CC2)nc1 (stereo not given)		inactive
N#Cc1ccc(OCCCN2CCC(C(O)(c3cccc(F)c3)c3nccs3)CC2)cc1 (stereo not given)	19.7	
NS(=O)(=O)c1ccc(OCCCN2CCC(C(O)(c3cccc(F)c3)c3nccs3)CC2)cc1 (stereo not given)	43.7	
N#Cc1ccc(OCCCN2CCC(C(O)(c3cc(F)cc(F)c3)c3ccccn3)CC2)cc1 (stereo not given)	43.7	
